Where a name gives a salt, the structure may show the parent alone. Read-outs that look alike come from different tables or passages of the source.
Assays:
[1] = target: T1, human 5-hydroxytryptamine-2C (h5-HT2C) receptor (Homo sapiens, UniProt P28335); test: [125I]DOI binding to membranes of CHO cells expressing h5-HT2C receptor
T1 construct: expressed in transfected cells; host or cells: CHO (Chinese Hamster Ovary) cells; membrane preparation
T1 sequence (P28335 33-458): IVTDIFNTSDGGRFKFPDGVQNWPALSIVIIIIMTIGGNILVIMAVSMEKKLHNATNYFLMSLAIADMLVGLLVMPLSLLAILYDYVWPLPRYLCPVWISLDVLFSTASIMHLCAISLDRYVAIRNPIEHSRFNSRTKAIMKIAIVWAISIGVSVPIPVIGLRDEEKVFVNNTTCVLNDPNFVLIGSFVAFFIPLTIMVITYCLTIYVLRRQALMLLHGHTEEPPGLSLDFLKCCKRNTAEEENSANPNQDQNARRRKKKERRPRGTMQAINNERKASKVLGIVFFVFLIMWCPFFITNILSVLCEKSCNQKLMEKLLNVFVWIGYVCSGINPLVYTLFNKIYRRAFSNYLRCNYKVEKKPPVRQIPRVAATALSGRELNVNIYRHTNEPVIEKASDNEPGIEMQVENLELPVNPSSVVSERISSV

[2] = target: T2, human 5-HT2C receptor (Homo sapiens, UniProt P28335); test: calcium mobilization (FLIPR) in CHO cells stably expressing the human 5-HT2C receptor; assay type: cell-based; conditions: for Emax: CHO, read-out: 5-HT2C Function EMax (%); for EC50: calcium mobilization, read-out: 5-HT2C Function EC50
T2 sequence (P28335 33-458): T1 sequence (P28335 33-458)

[3] = read-out: 5-HT2C Binding Ki avg

SMILES: CNCC1CCc2cccc(-c3ccccc3Cl)c2O1 (stereo not shown) [Compound 1, N-{[8-(2-chlorophenyl)-3,4-dihydro-2H-chromen-2-yl]methyl}-N-methylamine hydrochloride]
- Ki [1, 3]: 10 to 50 nM
- Emax [2]: 80%
- EC50 [2]: < 50 nM

SMILES: NCC1CCc2cccc(-c3ccccc3Cl)c2O1 (stereo not shown) [Compound 2, {[8-(2-chlorophenyl)-3,4-dihydro-2H-chromen-2-yl]methyl}amine trifluoroacetate]
- Ki [1, 3]: ≤ 10 nM
- Emax [2]: 80%
- EC50 [2]: < 50 nM

SMILES: CNC[C@H]1CCc2cccc(-c3cc(Cl)ccc3Cl)c2O1 [Compound 3, {[(2R)-8-(2,5-dichlorophenyl)-3,4-dihydro-2H-chromen-2-yl]methyl}methylamine hydrochloride]
- Ki [1, 3]: ≤ 10 nM
- Emax [2]: 90%
- EC50 [2]: < 50 nM

SMILES: CNC[C@H]1CCc2cccc(-c3ccc(Cl)cc3Cl)c2O1 [Compound 4, {[(2R)-8-(2,4-dichlorophenyl)-3,4-dihydro-2H-chromen-2-yl]methyl}methylamine hydrochloride]
- Ki [1, 3]: > 50 nM
- Emax [2]: 80%
- EC50 [2]: < 50 nM

SMILES: CNC[C@H]1CCc2cccc(-c3ccccc3)c2O1 [Compound 5, N-methyl-N-{[(2R)-8-phenyl-3,4-dihydro-2H-chromen-2-yl]methyl}amine hydrochloride]
- Ki [1, 3]: ≤ 10 nM
- Emax [2]: 90%
- EC50 [2]: 50 to 200 nM

SMILES: CNC[C@H]1CCc2cccc(-c3ccccc3OC)c2O1 [Compound 6, N-{[(2R)-8-(2-methoxyphenyl)-3,4-dihydro-2H-chromen-2-yl]methyl}-N-methylamine hydrochloride]
- Ki [1, 3]: ≤ 10 nM
- Emax [2]: 90%
- EC50 [2]: < 50 nM

SMILES: CNC[C@H]1CCc2cccc(-c3ccc(OC)cc3OC)c2O1 [Compound 7, N-{[(2R)-8-(2,4-dimethoxyphenyl)-3,4-dihydro-2H-chromen-2-yl]methyl}-N-methylamine hydrochloride]
- Ki [1, 3]: ≤ 10 nM
- Emax [2]: 90%
- EC50 [2]: < 50 nM

SMILES: CNC[C@H]1CCc2cccc(-c3ccccc3C)c2O1 [Compound 8, N-methyl-N-{[(2R)-8-(2-methylphenyl)-3,4-dihydro-2H-chromen-2-yl]methyl}amine hydrochloride]
- Ki [1, 3]: ≤ 10 nM
- Emax [2]: 100%
- EC50 [2]: < 50 nM

SMILES: CNC[C@H]1CCc2cccc(-c3cccnc3)c2O1 [Compound 9, N-methyl-N-{[(2R)-8-pyridin-3-yl-3,4-dihydro-2H-chromen-2-yl]methyl}amine hydrochloride]
- Ki [1, 3]: ≤ 10 nM
- Emax [2]: 100%
- EC50 [2]: < 50 nM

SMILES: CNC[C@H]1CCc2cccc(-c3ccccc3Cl)c2O1 [Compound 10, N-{[(2R)-8-(2-chlorophenyl)-3,4-dihydro-2H-chromen-2-yl]methyl}-N-methylamine hydrochloride]
- Ki [1, 3]: ≤ 10 nM
- Emax [2]: 100%
- EC50 [2]: < 50 nM

SMILES: NC[C@H]1CCc2cccc(-c3ccccc3Cl)c2O1 [Compound 11, {[(2R)-8-(2-chlorophenyl)-3,4-dihydro-2H-chromen-2-yl]methyl}amine hydrochloride]
- Ki [1, 3]: ≤ 10 nM
- Emax [2]: 100%
- EC50 [2]: < 50 nM

SMILES: NC[C@H]1CCc2cccc(-c3cc(Cl)ccc3Cl)c2O1 [Compound 12, {[(2R)-8-(2,5-dichlorophenyl)-3,4-dihydro-2H-chromen-2-yl]methyl}amine hydrochloride]
- Ki [1, 3]: 10 to 50 nM
- Emax [2]: 90%
- EC50 [2]: 50 to 200 nM

SMILES: NC[C@H]1CCc2cccc(-c3ccc(Cl)cc3Cl)c2O1 [Compound 13, {[(2R)-8-(2,4-dichlorophenyl)-3,4-dihydro-2H-chromen-2-yl]methyl}amine hydrochloride]
- Ki [1, 3]: ≤ 10 nM
- Emax [2]: 100%
- EC50 [2]: < 50 nM

SMILES: NC[C@H]1CCc2cccc(-c3ccccc3)c2O1 [Compound 14, {[(2R)-8-phenyl-3,4-dihydro-2H-chromen-2-yl]methyl}amine hydrochloride]
- Ki [1, 3]: 10 to 50 nM
- Emax [2]: 80%
- EC50 [2]: > 200 nM

SMILES: COc1ccccc1-c1cccc2c1O[C@@H](CN)CC2 [Compound 15, {[(2R)-8-(2-methoxyphenyl)-3,4-dihydro-2H-chromen-2-yl]methyl}amine hydrochloride]
- Ki [1, 3]: ≤ 10 nM
- Emax [2]: 90%
- EC50 [2]: < 50 nM

SMILES: COc1ccc(-c2cccc3c2O[C@@H](CN)CC3)c(OC)c1 [Compound 16, {[(2R)-8-(2,4-dimethoxyphenyl)-3,4-dihydro-2H-chromen-2-yl]methyl}amine hydrochloride]
- Ki [1, 3]: ≤ 10 nM
- Emax [2]: 100%
- EC50 [2]: < 50 nM

SMILES: Cc1ccccc1-c1cccc2c1O[C@@H](CN)CC2 [Compound 17, {[(2R)-8-(2-methylphenyl)-3,4-dihydro-2H-chromen-2-yl]methyl}amine hydrochloride]
- Ki [1, 3]: ≤ 10 nM
- Emax [2]: 80%
- EC50 [2]: < 50 nM

SMILES: CNC[C@@H]1CCc2cccc(-c3ccccc3)c2O1 [Compound 22, N-methyl-1-[(2S)-8-phenyl-3,4-dihydro-2H-chromen-2-yl]methanamine hydrochloride]
- Ki [1, 3]: > 50 nM

SMILES: CNC[C@@H]1CCc2cccc(-c3ccccc3OC)c2O1 [Compound 23, {[(2S)-8-(2-methoxyphenyl)-3,4-dihydro-2H-chromen-2-yl]methyl}methylamine hydrochloride]
- Ki [1, 3]: > 50 nM

SMILES: CNC[C@@H]1CCc2cccc(-c3cccnc3)c2O1 [Compound 26, N-methyl-1-[(2S)-8-pyridin-3-yl-3,4-dihydro-2H-chromen-2-yl]methanamine hydrochloride]
- Ki [1, 3]: > 50 nM

SMILES: NC[C@@H]1CCc2cccc(-c3ccccc3)c2O1 [Compound 30, {[(2S)-8-phenyl-3,4-dihydro-2H-chromen-2-yl]methyl}amine hydrochloride]
- Ki [1, 3]: > 50 nM

SMILES: COc1ccccc1-c1cccc2c1O[C@H](CN)CC2 [Compound 31, {[(2S)-8-(2-methoxyphenyl)-3,4-dihydro-2H-chromen-2-yl]methyl}amine hydrochloride]
- Ki [1, 3]: > 50 nM

SMILES: NC[C@@H]1CCc2cccc(-c3cccnc3)c2O1 [Compound 34, {[(2S)-8-pyridin-3-yl-3,4-dihydro-2H-chromen-2-yl]methyl}amine hydrochloride]
- Ki [1, 3]: > 50 nM

SMILES: NC[C@@H]1CCc2cc(F)cc(-c3ccccc3)c2O1 [Compound 52, {[(2S)-6-fluoro-8-phenyl-3,4-dihydro-2H-chromen-2-yl]methyl}amine hydrochloride]
- Ki [1, 3]: > 50 nM

SMILES: NC[C@@H]1CCc2cc(F)cc(-c3cccnc3)c2O1 [Compound 54, {[(2S)-6-fluoro-8-pyridin-3-yl-3,4-dihydro-2H-chromen-2-yl]methyl}amine hydrochloride]
- Ki [1, 3]: > 50 nM

SMILES: Cc1ccccc1-c1c(Cl)ccc2c1O[C@@H](CN)CC2 [Compound 69, ((2R)-7-Chloro-8-o-tolylchroman-2-yl)methanamine hydrochloride]
- Ki [1, 3]: ≤ 10 nM

SMILES: NC[C@H]1CCc2ccc(F)c(-c3ccccc3Cl)c2O1 [Compound 71, ((2R)-8-(2-chlorophenyl)-7-fluorochroman-2-yl)methanamine hydrochloride]
- Ki [1, 3]: ≤ 10 nM

SMILES: Cc1cc(Cl)ccc1-c1c(F)ccc2c1O[C@@H](CN)CC2 [Compound 72, ((2R)-8-(4-Chloro-2-methylphenyl)-7-fluorochroman-2-yl)methanamine hydrochloride]
- Ki [1, 3]: ≤ 10 nM

SMILES: CSc1ccc2c(c1)C(N1CCN(C)CC1)Cc1ccccc1S2 (stereo not shown) [Methiothepin, reference compound]
- Ki ([1]; reference compounds, 95% confidence interval in brackets, [125I]DOI displacement, read-out: Ki): 4.6 nM

SMILES: COc1cc(CC(C)N)c(OC)cc1I (stereo not shown) [[^125I] DOI, reference compound]
- Kd ([1]; saturation binding with increasing concentrations of [125I] DOI, read-out: dissociation constant, KD): 0.4 nM
